In brackets after ≈: the same amount, converted by molar mass. Like-named read-outs stand apart in the source and are kept apart here.
Tests used:
[1] = test system: Wild-type AB zebrafish larvae; test: Zebrafish cardiovascular toxicity, administration by dissolving the drug into the water; assay type: in vivo; parameters: Mortality / Incidence of Atrial Arrest: unit not given here
[2] = test system: Wild-type AB zebrafish larvae; test: Zebrafish cardiovascular toxicity, administration via yolk sac injection; assay type: in vivo; conditions: yolk sac injection 10 nl
Procedure: Wild-type AB zebrafish larvae were treated with the drugs to be tested for 24 hours via yolk sac injection administration with a maximum dose volume of 40 nl, and the five initial test concentrations were: 0.1 mg/mL, 1 mg/mL, 10 mg/mL, 100 mg/mL, and 500 mg/mL, respectively. At the same time, a blank control group was set up, with 30 zebrafish treated at each concentration. At the end of drug treatment, the number of zebrafish deaths in each experimental group was counted to provide a basis for the next experimental concentration design.
2.2.1 10 nl was administered via yolk sac injection. After treatment for a certain period of time, 10 zebrafish were randomly selected to have their heart rates counted, and their relative heart rates were calculated for comparison.
2.2.3 10 zebrafish in each group were randomly selected and observed under the dissecting microscope. […]
Three formal experimental concentrations were set. After treatment for a certain period of time, 10 zebrafish were randomly selected to have their heart rates counted, and their relative heart rates were calculated for comparison.

[3] = cited from earlier work
[4] = Solubility Test for Nimodipine in Oil Phase; assay type: physicochemical; conditions: normal temperature; for solubility: oil or lipid
Text: There are different crystalline forms for nimodipine, i.e. α and β. The solubility is different in solvents for different crystalline forms. […] The solubility in an oil phase was not reported yet. […] Furthermore, the solubility of α-type is much greater than that of β-type both in the medium-chain fatty oil and the mixture of soybean oil and medium-chain fatty oil (see the table below). Therefore, formulating α-type nimodipine into a fat emulsion injection may solve the problems of low drug loading efficiency, poor safety, and poor stability occurring in its solution for injection and other fat emulsions for injection developed by the prior art. [table]

[5] = cited from earlier work; remark: listed apart in the source
guinea pigs = test: Active Systemic Anaphylaxis Test in Guinea Pigs; conditions: positive control group, after stimulation
SD rats = test: Passive Anaphylaxis Test in Rats; assay type: in vivo, rat; parameters: key to Blue Stain Reaction: − indicates negative; + indicates positive; conditions: sensitized SD rats, 100 mg/kg intravenously, positive control
[6] = dissolved into the water, 0.625 μg/ml
[7] = dissolved into the water, 1.25 μg/ml
[8] = dissolved into the water, 2.5 μg/ml
[9] = dissolved into the water, 5.0 μg/ml

COCCOC(=O)C1=C(C)NC(C)=C(C(=O)OC(C)C)C1c1cccc([N+](=O)[O-])c1 (centres unmarked) [Drug substance, Nimodipine]
concentration at which pericardial edema was induced in all zebrafish ([1]; dissolved into the water): 5000 ng/mL
Incidence of Atrial Arrest [1, 6]: 0
Incidence of Pericardial Edema [1, 6]: 10
Mortality [1, 6]: 0
Relative Heart Rate [1, 6]: 97.0
Incidence of Atrial Arrest [1, 7]: 0
Incidence of Pericardial Edema [1, 7]: 20
Mortality [1, 7]: 0
Relative Heart Rate [1, 7]: 94.8
Incidence of Atrial Arrest [1, 8]: 10
Incidence of Pericardial Edema [1, 8]: 50
Mortality [1, 8]: 0
Relative Heart Rate [1, 8]: 76.4
Incidence of Atrial Arrest [1, 9]: 90
Incidence of Pericardial Edema [1, 9]: 100
Mortality [1, 9]: 26.7
Relative Heart Rate [1, 9]: 58.5
incidence of atrial arrest [1, 9]: 90%
maximum non-lethal concentration ([1]; zebrafish, drug dissolved into the water, 24 hours): 2.5 µg/mL
Actual Heart Rate (± SD) ([2]; 0.5 mg/ml): 159.0 ± 6.8 beat / min
Incidence of Circulatory Insufficiency ([2]; 0.5 mg/ml): 0%
Incidence of Decreased Blood Flow ([2]; 0.5 mg/ml): 0%
Incidence of Pericardial Edema ([2]; 0.5 mg/ml): 0%
Mortality ([2]; 0.5 mg/ml): 0%
Relative Heart Rate (± SD) ([2]; 0.5 mg/ml): 99.1 ± 4.2%
Actual Heart Rate (± SD) ([2]; 1.0 mg/ml): 159.6 ± 5.3 beat / min
Incidence of Circulatory Insufficiency ([2]; 1.0 mg/ml): 0%
Incidence of Decreased Blood Flow ([2]; 1.0 mg/ml): 10%
Incidence of Pericardial Edema ([2]; 1.0 mg/ml): 20%
Mortality ([2]; 1.0 mg/ml): 0%
Relative Heart Rate (± SD) ([2]; 1.0 mg/ml): 99.4 ± 3.3%
Actual Heart Rate (± SD) ([2]; 2.0 mg/ml): 158.4 ± 8.7 beat / min
Incidence of Circulatory Insufficiency ([2]; 2.0 mg/ml): 10%
Incidence of Decreased Blood Flow ([2]; 2.0 mg/ml): 10%
Mortality ([2]; 2.0 mg/ml): 0%
Relative Heart Rate (± SD) ([2]; 2.0 mg/ml): 98.7 ± 5.4%
Incidence of Pericardial Edema ([2]; 2.0 mg/ml (67 mg/kg)): 30%
Actual Heart Rate (± SD) ([2]; 4.0 mg/ml): 166.5 ± 7.2 beat / min
Incidence of Circulatory Insufficiency ([2]; 4.0 mg/ml): 10%
Incidence of Decreased Blood Flow ([2]; 4.0 mg/ml): 40%
Incidence of Pericardial Edema ([2]; 4.0 mg/ml): 60%
Mortality ([2]; 4.0 mg/ml): 20%
Relative Heart Rate (± SD) ([2]; 4.0 mg/ml): 103.7 ± 4.5%
Actual Heart Rate (± SD) ([2]; 8.0 mg/ml): 167.1 ± 10.2 beat / min
Incidence of Circulatory Insufficiency ([2]; 8.0 mg/ml): 40%
Incidence of Decreased Blood Flow ([2]; 8.0 mg/ml): 10%
Incidence of Pericardial Edema ([2]; 8.0 mg/ml): 60%
Mortality ([2]; 8.0 mg/ml): 33.3%
Relative Heart Rate (± SD) ([2]; 8.0 mg/ml): 104.1 ± 6.4%
Actual Heart Rate (± SD) ([2]; 16 mg/ml): 166.8 ± 10.3 beat / min
Incidence of Circulatory Insufficiency ([2]; 16 mg/ml): 40%
Incidence of Decreased Blood Flow ([2]; 16 mg/ml): 30%
Incidence of Pericardial Edema ([2]; 16 mg/ml): 70%
Mortality ([2]; 16 mg/ml): 50%
Relative Heart Rate (± SD) ([2]; 16 mg/ml): 103.9 ± 6.4%
Actual Heart Rate (± SD) ([2]; 32 mg/ml): 144.5 ± 7.4 beat / min
Incidence of Circulatory Insufficiency ([2]; 32 mg/ml): 100%
Incidence of Decreased Blood Flow ([2]; 32 mg/ml): 0%
Incidence of Pericardial Edema ([2]; 32 mg/ml): 100%
Mortality ([2]; 32 mg/ml): 80%
Relative Heart Rate (± SD) ([2]; 32 mg/ml): 90.0 ± 4.6 %
oral bioavailability ([3]; healthy subjects): 5-13%
biological half-life ([3]; in vivo): 1.5-2 h
oral bioavailability ([3]; patients with subarachnoid hemorrhage): 3-28%

COCCOC(=O)C1=C(C)NC(C)=C(C(=O)OC(C)C)C1c1cccc([N+](=O)[O-])c1 (stereo not drawn) [α-type, nimodipine]
Solubility, Medium-chain Oil [4]: 23.22 mg/mL (≈ 55.5 mM)
Solubility, Soybean Oil [4]: 7.5 mg/mL (≈ 17.9 mM)
Solubility, Soybean Oil:Medium-chain Oil (4:6) [4]: 18.1 mg/mL (≈ 43.3 mM)

COCCOC(=O)C1=C(C)NC(C)=C(C(=O)OC(C)C)C1c1cccc([N+](=O)[O-])c1 (stereo not drawn) [β-type, nimodipine]
Solubility, Water ([5]; normal temperature): 0.0036 mg/mL (≈ 0.0086 mM)
solubility in water ([5]; published literature): 0.0036 mg/mL (≈ 0.0086 mM)
solubility ([4]; medium-chain oil, read-out: Solubility, Medium-chain Oil): 11.8 mg/mL (≈ 28.2 mM)
solubility ([4]; soybean oil, read-out: Solubility, Soybean Oil): 6.7 mg/mL (≈ 16 mM)
solubility ([4]; soybean oil:medium-chain oil (4:6), read-out: Solubility, Soybean Oil:Medium-chain Oil (4:6)): 11 mg/mL (≈ 26.3 mM)

bovine serum albumin: positive control of the anaphylaxis tests
intensity of anaphylaxis reaction (guinea pigs): ++˜++++
mortality rate (guinea pigs): 50%
total reaction rate (guinea pigs): 100%
Blue Stain Reaction (SD rats): +
Blue Stain Reaction (diameter) (SD rats): 22.0 ± 4.3 mm
